# ChEMBL document CHEMBL1201862, “PubChem BioAssay data set” (2004)
#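 Results reflect a 48-hour exposure of cells in 96-well plates to compound at five concentrations. At the GI50, growth is halved.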 Calls of active or inactive are those of the source. Rule as the data show it: active = GI50 up to about 1.1 µM and inactive = higher.
# Columns and labels:
# Experiment in all cases: NCI tumour cell line growth inhibition, 48 h
# HOP-92 = tested on: HOP-92
# TK-10 = tested on: TK-10
# HCT-116 = tested on: HCT-116
# DU-145 = tested on: DU-145
# COLO 205 = tested on: COLO 205
# SW-620 = tested on: SW-620
# SK-MEL-5 = tested on: SK-MEL-5
# MDA-MB-231 = tested on: MDA-MB-231
# OVCAR-4 = tested on: OVCAR-4
# MDA-MB-435 = tested on: MDA-MB-435
# SF-295 = tested on: SF-295
# ACHN = tested on: ACHN
# NCI-H522 = tested on: NCI-H522
# BT-549 = tested on: BT-549
# NCI-H23 = tested on: NCI-H23
# 786-0 = tested on: 786-0
# OVCAR-8 = tested on: OVCAR-8
# SNB-19 = tested on: SNB-19
# PC-3 = tested on: PC-3
# U-251 = tested on: U-251
# HCC 2998 = tested on: HCC 2998
# SN12C = tested on: SN12C
# RXF 393 = tested on: RXF 393
# HT-29 = tested on: HT-29
# LOX IMVI = tested on: LOX IMVI
# UO-31 = tested on: UO-31
# SK-MEL-28 = tested on: SK-MEL-28
# SNB-75 = tested on: SNB-75
# UACC-62 = tested on: UACC-62
# OVCAR-5 = tested on: OVCAR-5
# RPMI-8226 = tested on: RPMI-8226
# SK-OV-3 = tested on: SK-OV-3
# SF-268 = tested on: SF-268
# MCF7 = tested on: MCF7
# A549 = tested on: A549
# MDA-N = tested on: MDA-N
# SR = tested on: SR
# M14 = tested on: M14
# NCI/ADR-RES = tested on: NCI/ADR-RES
# EKVX = tested on: EKVX
# SK-MEL-2 = tested on: SK-MEL-2
# HOP-62 = tested on: HOP-62
# IGROV-1 = tested on: IGROV-1
# HCT-15 = tested on: HCT-15
# MOLT-4 = tested on: MOLT-4
# KM12 = tested on: KM12
# UACC-257 = tested on: UACC-257
# SF-539 = tested on: SF-539
# CCRF-CEM = tested on: CCRF-CEM
# K562 = tested on: K562
# OVCAR-3 = tested on: OVCAR-3
# T47D = tested on: T47D
# NCI-H226 = tested on: NCI-H226
# Malme-3M = tested on: Malme-3M
# A498 = tested on: A498
# NCI-H460 = tested on: NCI-H460
# CAKI-1 = tested on: CAKI-1
smiles,measurement,setting,value
CCc1nnc(CC)n1N1C(=O)CCC1=O,GI50,HOP-92,> 100 µM (inactive)
same,GI50,TK-10,> 100 µM (inactive)
same,GI50,HCT-116,> 100 µM (inactive)
same,GI50,DU-145,> 100 µM (inactive)
same,GI50,COLO 205,> 100 µM (inactive)
same,GI50,SW-620,> 100 µM (inactive)
same,GI50,SK-MEL-5,> 100 µM (inactive)
same,GI50,MDA-MB-231,> 100 µM (inactive)
same,GI50,OVCAR-4,> 100 µM (inactive)
same,GI50,MDA-MB-435,> 100 µM (inactive)
same,GI50,SF-295,> 100 µM (inactive)
same,GI50,ACHN,> 100 µM (inactive)
same,GI50,NCI-H522,> 100 µM (inactive)
same,GI50,BT-549,> 100 µM (inactive)
same,GI50,NCI-H23,> 100 µM (inactive)
same,GI50,786-0,> 100 µM (inactive)
same,GI50,OVCAR-8,> 100 µM (inactive)
same,GI50,SNB-19,> 100 µM (inactive)
same,GI50,PC-3,> 100 µM (inactive)
same,GI50,U-251,> 100 µM (inactive)
same,GI50,HCC 2998,> 100 µM (inactive)
same,GI50,SN12C,> 100 µM (inactive)
same,GI50,RXF 393,> 100 µM (inactive)
same,GI50,HT-29,> 100 µM (inactive)
same,GI50,LOX IMVI,> 100 µM (inactive)
same,GI50,UO-31,> 100 µM (inactive)
same,GI50,SK-MEL-28,> 100 µM (inactive)
same,GI50,SNB-75,> 100 µM (inactive)
same,GI50,UACC-62,> 100 µM (inactive)
same,GI50,OVCAR-5,> 100 µM (inactive)
same,GI50,RPMI-8226,> 100 µM (inactive)
same,GI50,SK-OV-3,> 100 µM (inactive)
same,GI50,SF-268,> 100 µM (inactive)
same,GI50,MCF7,> 100 µM (inactive)
same,GI50,A549,> 100 µM (inactive)
same,GI50,MDA-N,> 100 µM (inactive)
same,GI50,SR,> 100 µM (inactive)
same,GI50,M14,> 100 µM (inactive)
same,GI50,NCI/ADR-RES,> 100 µM (inactive)
same,GI50,EKVX,> 100 µM (inactive)
same,GI50,SK-MEL-2,> 100 µM (inactive)
same,GI50,HOP-62,> 100 µM (inactive)
same,GI50,IGROV-1,> 100 µM (inactive)
same,GI50,HCT-15,> 100 µM
same,GI50,MOLT-4,> 100 µM (inactive)
same,GI50,KM12,> 100 µM (inactive)
same,GI50,UACC-257,> 100 µM (inactive)
same,GI50,SF-539,> 100 µM (inactive)
same,GI50,CCRF-CEM,> 100 µM (inactive)
same,GI50,K562,> 100 µM (inactive)
same,GI50,OVCAR-3,> 100 µM (inactive)
CNc1ccc(C(=O)CC(O)CCC(C)C2OC(=O)CC(O)CC(=O)CC(O)CC(O)CC(O)CC(O)CC3(O)CC(O)C(C(=O)NCCN4CCOCC4)C(CC(OC4OC(C)C(O)C(N)C4O)\C=C/C=C\C=C/C=C/C=C/C=C\C=C/C2C)O3)cc1 (stereo not drawn),GI50,HOP-92,> 100 µM (inactive)
same,GI50,TK-10,1.52 µM (inactive)
same,GI50,HCT-116,> 100 µM (inactive)
same,GI50,SW-620,> 100 µM (inactive)
same,GI50,OVCAR-4,2.74 µM (inactive)
same,GI50,MDA-MB-435,1.56 µM (inactive)
same,GI50,NCI-H522,0.493 µM (active)
same,GI50,BT-549,1.64 µM (inactive)
same,GI50,786-0,1.01 µM (active)
same,GI50,OVCAR-8,4.23 µM (inactive)
same,GI50,SNB-19,> 100 µM (inactive)
same,GI50,SN12C,0.417 µM (active)
same,GI50,RXF 393,> 100 µM (inactive)
same,GI50,T47D,> 100 µM (inactive)
same,GI50,UO-31,0.404 µM (active)
same,GI50,SNB-75,> 100 µM (inactive)
same,GI50,UACC-62,1.68 µM (inactive)
same,GI50,NCI-H226,3.81 µM (inactive)
same,GI50,MDA-N,0.701 µM (active)
same,GI50,SK-MEL-2,6.43 µM (inactive)
same,GI50,IGROV-1,6.34 µM (inactive)
same,GI50,MOLT-4,2.3 µM (inactive)
same,GI50,KM12,2.84 µM (inactive)
same,GI50,UACC-257,0.537 µM (active)
same,GI50,SF-539,16 µM (inactive)
same,GI50,Malme-3M,0.267 µM (active)
same,GI50,A498,0.321 µM (active)
Cc1cc(C#N)c(Nc2ccc(F)cc2[N+](=O)[O-])s1,GI50,HOP-92,33.4 µM (inactive)
same,GI50,NCI-H460,> 100 µM (inactive)
same,GI50,HCT-116,> 100 µM (inactive)
same,GI50,DU-145,> 100 µM (inactive)
same,GI50,COLO 205,> 100 µM (inactive)
same,GI50,SW-620,> 100 µM (inactive)
same,GI50,MDA-MB-231,21.5 µM (inactive)
same,GI50,OVCAR-4,> 100 µM (inactive)
same,GI50,MDA-MB-435,> 100 µM (inactive)
same,GI50,SF-295,30.8 µM (inactive)
same,GI50,ACHN,83.8 µM (inactive)
same,GI50,NCI-H522,> 100 µM (inactive)
same,GI50,BT-549,24.4 µM (inactive)
same,GI50,NCI-H23,> 100 µM (inactive)
same,GI50,786-0,54.5 µM (inactive)
same,GI50,OVCAR-8,> 100 µM (inactive)
same,GI50,SNB-19,> 100 µM (inactive)
same,GI50,PC-3,> 100 µM (inactive)
same,GI50,U-251,26.8 µM (inactive)
same,GI50,HCC 2998,> 100 µM (inactive)
same,GI50,SN12C,> 100 µM (inactive)
same,GI50,RXF 393,20.2 µM (inactive)
same,GI50,T47D,> 100 µM (inactive)
same,GI50,UO-31,> 100 µM (inactive)
same,GI50,SK-MEL-28,> 100 µM (inactive)
same,GI50,SNB-75,21.3 µM (inactive)
same,GI50,UACC-62,> 100 µM (inactive)
same,GI50,OVCAR-5,> 100 µM (inactive)
same,GI50,RPMI-8226,> 100 µM (inactive)
same,GI50,SK-OV-3,> 100 µM (inactive)
same,GI50,SF-268,25.5 µM (inactive)
same,GI50,A549,> 100 µM (inactive)
same,GI50,NCI-H226,> 100 µM (inactive)
same,GI50,MDA-N,> 100 µM (inactive)
same,GI50,SR,> 100 µM (inactive)
same,GI50,M14,71.1 µM (inactive)
same,GI50,NCI/ADR-RES,> 100 µM (inactive)
same,GI50,EKVX,> 100 µM (inactive)
same,GI50,HOP-62,30.3 µM (inactive)
same,GI50,HCT-15,> 100 µM
same,GI50,MOLT-4,> 100 µM (inactive)
same,GI50,KM12,> 100 µM (inactive)
same,GI50,UACC-257,> 100 µM (inactive)
same,GI50,CAKI-1,84.9 µM (inactive)
same,GI50,SF-539,80.7 µM (inactive)
same,GI50,CCRF-CEM,> 100 µM (inactive)
same,GI50,Malme-3M,70.6 µM (inactive)
same,GI50,A498,> 100 µM (inactive)
same,GI50,K562,> 100 µM (inactive)
same,GI50,OVCAR-3,> 100 µM (inactive)
